In article PMC6010130, “Inhibition of Leishmania infantum trypanothione reductase by diaryl sulfide derivatives” (Journal of Enzyme Inhibition and Medicinal Chemistry, 2017):

Key:
[1] = target: T1, trypanothione reductase (TR) (Leishmania infantum, UniProt A4HSF7); test: X-ray crystal structure ([…] Å); type: binding
T1 construct: gene TRYR

[2] = target: T1, trypanothione reductase (TR); test: X-ray crystal structure ([…] Å, soaked oxidized TR); Ki from Dixon plot of the purified enzyme (NADPH oxidation at […] nm); type: biochemical

T1 sequence (A4HSF7 1-491): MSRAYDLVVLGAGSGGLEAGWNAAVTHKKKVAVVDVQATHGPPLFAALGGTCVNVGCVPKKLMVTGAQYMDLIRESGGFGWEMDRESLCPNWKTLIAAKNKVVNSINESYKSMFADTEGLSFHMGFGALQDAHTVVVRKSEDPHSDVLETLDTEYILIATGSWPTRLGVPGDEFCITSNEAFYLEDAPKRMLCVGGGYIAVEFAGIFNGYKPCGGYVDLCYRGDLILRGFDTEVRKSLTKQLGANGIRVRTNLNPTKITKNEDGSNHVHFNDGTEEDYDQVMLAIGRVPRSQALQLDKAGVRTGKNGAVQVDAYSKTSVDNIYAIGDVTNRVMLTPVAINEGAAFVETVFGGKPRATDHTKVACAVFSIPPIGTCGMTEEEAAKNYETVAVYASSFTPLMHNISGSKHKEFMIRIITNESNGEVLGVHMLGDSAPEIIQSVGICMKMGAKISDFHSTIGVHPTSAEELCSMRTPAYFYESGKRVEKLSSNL

| SMILES | X-ray crystal structure (3.5 Å) [1] | Ki [2] [nM] |
| --- | --- | --- |
| Cc1cc2nc3c(=O)[nH]c(=O)nc-3n(C[C@H](O)[C@H](O)[C@H](O)COP(=O)(O)OP(=O)(O)OC[C@H]3O[C@@H](n4cnc5c(N)ncnc54)[C@H](O)[C@@H]3O)c2cc1C [FAD] | Each monomer contains a FAD molecule. | – |
| CCC(C)Oc1cc(N)nc(Sc2cccc(Cl)c2)n1 (centres unmarked) [RDS 777, 6-(sec-butoxy)-2-((3-chlorophenyl)thio)pyrimidin-4-amine] | – | 250 ± 180 |
